Assay results as given in US9084766B2, “Compounds and compositions for targeting cancer stem cells” (Boston Biomedical, Inc., priority 2010, dated 2015).
“And” between values parts separate entries of the source, which are not always exact repeats. Equal entries are not always repeated. “Also recorded” adds a separate entry of the source. Where two headings read alike, the source gives them in different places.

Columns and labels:
[1] = tested on: CD34+ BM Myeloid; assay: IC50 versus treatment time, CD34+ BM Myeloid; type: cell-based; conditions: normal cells CD34+ BM Myeloid, treatment time 12-24 h
Procedure: (§1) The studies described herein discovered counter-intuitively that cancer cells and cancer stem cells requires much shorter exposure than normal cells to be killed by Compound 1. Normal cells can tolerate up to 24 hours of exposure to Compound 1. Furthermore, the studies here discovered that normal cells can recover after a short period of no-drug exposure, while cancer cells cannot recover once they are exposed to a certain concentration of the Compound 1 for at least 2 hours. Based on these studies, a special pharmacokinetic exposure [termed selective pharmacokinetic profile (SPP), or preferred pharmacokinetic profile (PPP), which is used interchangeably in this publication] was designed for Compound 1 using the data shown below in Table 14 for achieving selective antitumor activity in patients (FIG. 24).

[2] = Phase I clinical trial: plasma pharmacokinetics; type: in vivo, human; design: AUC0-24 hrs: concentration or dose not given beside the values; conditions: for AUC0-24 hrs: in µM·h
Procedure: A favorable PK profile with oral bid dosing was also observed. The plasma concentration reached several folds over efficacious concentration (in vitro IC50).
In yet another suitable dosing regimen, Compound 1 is administered with food which delays the Tmax (Table 13).

[3] = Pharmacokinetics in mice of particle size formulations; type: in vivo; conditions: particle size 125-150 micron versus 2 and 20 micron, 100 mg/kg oral, 20% Gelucire 44/14 and 1% Tween 80
Procedure: In an experiment, micronized Compound 1 prepared in step 6 of Example 2 with a mean particle size of 2 micron, 20 microns, 150 microns were formulated as suspensions in 20% Gelucire 44/14 and 1% Tween 80 and administered orally to mice at 100 mg/kg. Each time point represents the average of 3 mice (FIG. 16).

[4] = tested on: CD34+ BM Erythroid; assay: IC50 versus treatment time, CD34+ BM Erythroid; type: cell-based; conditions: normal cells CD34+ BM Erythroid, treatment time 12-24 h
Procedure: as §1

[5] = tested on: cancer cells and normal cells; conditions: Hirai et al. 1999; Takano et al. 2009; previous studies; cited from earlier work
[6] = tested on: PMBCs; assay: IC50 versus treatment time, PMBCs; type: cell-based; conditions: normal cells PMBCs
Procedure: as §1

[7] = tested on: cancer cells and normal cells; assay: Exposure time/concentration selectivity, cancer cells versus normal cells; type: cell-based
Procedure: as §1
Preferably, cancer cells must be exposed to a Compound of the Invention such as Compound 1, particles, polymorphs and/or purified forms thereof for 4 hours at concentration greater than 0.2 μM in order to induce cancer cell death. […] A reduced particle size of Compound 1 achieved this preferred pharmacokinetic pattern and selective activity.
The selective activity of Compound 1 in killing cancer cells and sparing normal cells is represented by the data in Table 14 and illustrated in FIG. 24.

## CC(=O)c1cc2c(o1)C(=O)c1ccccc1C2=O [Compound 1, 2-acetyl-4H,9H-naphtho[2,3-b]furan-4,9-dione]
[1]
  IC50: > 30 µM
[2]; 20 mg QD (FIG. 21)
  clearance from blood: rapidly cleared from the blood
[2]; 320 mg/day dose level
  time plasma concentration sustained at at least 1.5 μM: over 8 hours
[2]; 320 mg/day dose level, for over 8 hours
  plasma concentration sustained: at least 1.5 μM
[2]; Fasting
  Cmax: 2550 nM
  AUC0-24 hrs: 20.72
[2]; doses through about 1000 mg/day
  pharmacokinetics (linearity): apparent linear pharmacokinetics
[2]; human, plasma, oral, 80 mg, total daily dose 80 mg, BID dosing, read-out: AUC0-24
  AUC(0-t): 7.95 µM·h
[2]; human, plasma, oral, 160 mg, total daily dose 160 mg, BID dosing, read-out: AUC0-24
  AUC(0-t): 9.52 µM·h
[2]; human, plasma, oral, 320 mg, total daily dose 320 mg, BID dosing, read-out: AUC0-24
  AUC(0-t): 29.8 µM·h
[2]; human, plasma, oral, 400 mg, total daily dose 400 mg, BID dosing, read-out: AUC0-24
  AUC(0-t): 53.6 µM·h
[2]; human, plasma, oral, 600 mg, total daily dose 600 mg, BID dosing, read-out: AUC0-24
  AUC(0-t): 27.3 µM·h
[2]; human, plasma, oral, 800 mg, total daily dose 800 mg, BID dosing, read-out: AUC0-24
  AUC(0-t): 26.4 µM·h
[2]; human, plasma, oral, 1000 mg, total daily dose 1000 mg, BID dosing, read-out: AUC0-24
  AUC(0-t): 42.6 µM·h
[2]; human, plasma, oral, 1400 mg, total daily dose 1400 mg, BID dosing, read-out: AUC0-24
  AUC(0-t): 28.4 µM·h
[2]; human, plasma, oral, 2000 mg, total daily dose 2000 mg, BID dosing, read-out: AUC0-24
  AUC(0-t): 39.1 µM·h
[2]; human, plasma, oral, Fasting
  Cmax: 2010 nM
[2]; human, plasma, oral, Fasting, read-out: AUC0-24 hrs
  AUC(0-t): 20.1 µM·h
[2]; human, plasma, oral, patient 20, Fasting
  Tmax: 2 h
[2]; human, plasma, oral, patient 20, With Food
  Tmax: 8 h
[2]; human, plasma, oral, patient 20, With Milk
  Tmax: 2 h
[2]; human, plasma, oral, patient 21, Fasting
  Tmax: 6 h
[2]; human, plasma, oral, patient 21, With Food
  Tmax: 6 h
[2]; human, plasma, oral, patient 21, With Milk
  Tmax: 6 h
[2]; human, plasma, oral, patient 22, Fasting
  Tmax: 8 h
[2]; human, plasma, oral, patient 22, With Food
  Tmax: 10 h
[2]; human, plasma, oral, patient 22, With Milk
  Tmax: 8 h
[2]; human, plasma, oral, patient 24, With Food
  Tmax: 10 h
[2]; human, plasma, oral, patient 24, With Milk
  Tmax: 6.3 h
[2]; human, plasma, oral, patient 27, With Food
  Tmax: 6 h
[2]; human, plasma, oral, patient 27, With Milk
  Tmax: 0.5 h
[2]; human, plasma, oral, patient 28, With Food
  Tmax: 10 h
[2]; human, plasma, oral, patient 28, With Milk
  Tmax: 6 h
[2]; human, plasma, oral, with Milk
  Cmax: 3050 nM
[2]; human, plasma, oral, with Milk, read-out: AUC0-24 hrs
  AUC(0-t): 31.4 µM·h
[2]; repeated daily dosing every 28 days, doses through about 1000 mg/day
  drug accumulation: no evidence of drug accumulation
[2]; with Milk
  Cmax: 2890 nM
  AUC0-24 hrs: 32.16
[2]; with Milk versus Fasting
  AUC0-24 hrs Fold Change: 1.56 and 1.55
  Cmax Fold Change: 1.52 and 1.13
[3]
  plasma exposure: lower level of exposure
[4]
  IC50: > 30 µM
[5]
  toxicity to cancer cells and normal cells: equally toxic to normal and cancer cells; also recorded: equally toxic to cancer cells and normal cells
[6]; treatment time 12-24 h
  IC50: 14 µM
[6]; treatment time 72 h
  IC50: 3 µM
[7]; concentration greater than from about 0.5 to about 3 μM for less than 24 hours
  selectivity: selective activity in killing cancer cells and sparing normal cells
[7]; concentrations of about or above 0.2 and 30 μM for from about 4 hours up to about 24 hours
  selectivity: selective killing of cancer cells and sparing of normal cells
[7]; concentrations of less than 0.5 μM, regardless of exposure time
  killing of cancer cells: no killing of cancer cells
[7]; continuous exposure for greater than 24 hours
  selectivity: loss of selectivity
[7]; normal cells
  exposure time tolerated by normal cells: up to 24 hours
